Residues, ends and D or L forms follow the SMILES beside them. *: point of attachment. Naproxen = COc1ccc2cc([C@H](C)C(=O)*)ccc2c1
How the values were obtained:
[1] = target: T1, COX-2 (human recombinant) enzyme (Homo sapiens, UniProt P35354); assay: COX Fluorescent Inhibitor Screening Assay, COX-2; format: biochemical
T1 construct: purchased Cayman Chemical 700100
T1 sequence (P35354 18-604): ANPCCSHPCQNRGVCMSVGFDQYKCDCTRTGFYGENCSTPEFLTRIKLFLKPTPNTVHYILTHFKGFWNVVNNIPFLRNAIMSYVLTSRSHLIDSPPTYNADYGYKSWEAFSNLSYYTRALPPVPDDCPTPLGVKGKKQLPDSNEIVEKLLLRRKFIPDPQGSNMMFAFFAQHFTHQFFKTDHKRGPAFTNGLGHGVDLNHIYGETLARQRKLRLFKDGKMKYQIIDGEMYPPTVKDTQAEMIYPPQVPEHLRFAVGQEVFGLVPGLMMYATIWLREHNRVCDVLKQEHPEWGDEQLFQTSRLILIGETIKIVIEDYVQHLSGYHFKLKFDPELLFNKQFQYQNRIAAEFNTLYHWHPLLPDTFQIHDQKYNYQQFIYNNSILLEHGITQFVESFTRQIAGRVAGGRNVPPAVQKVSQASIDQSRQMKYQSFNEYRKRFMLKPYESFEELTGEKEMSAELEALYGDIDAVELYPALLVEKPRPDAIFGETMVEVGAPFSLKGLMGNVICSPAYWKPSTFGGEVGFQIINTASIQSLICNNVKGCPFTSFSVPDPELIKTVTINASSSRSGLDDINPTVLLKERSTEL
Procedure: (§1) To study the drug efficacies of NSAID containing hydrogelators, here we used ‘COX Fluorescent Inhibitor Screening Assay Kit’ (700100; Cayman Chemical) to do in vitro inhibition assays for Npx and Npx containing hydrogelors 1, 2, 3, 4, 5, and 6. Each compound was tested by COX-1 (ovine) enzyme and COX-2 (human recombinant) enzyme separately in 96 well black assay plates. By utilizing the peroxidase component of COXs, we monitored the reaction between PGG2 and ADHP (10-acetyl-3,7-dihydroxyphenoxazine), which produced highly fluorescent compound resorufin. This resorufin can be easily analyzed by multimode detector with an excitation wavelength of 530-540 nm and an emission wavelength of 585-595 nm. All the compounds are assayed in triplicate. After the combination of 10 μl of inhibitors, 10 μl of Heme solution, 10 μL of fluorometric substrate, 10 μl of enzyme (either COX-1 or COX-2), and 150 μl of assay buffer, we quickly add 10 μl of arachidonic acid solution to initiate the reaction. Then we read the plate exactly after two minutes incubation at room temperature. In this experiment, we also measure the blank data without enzyme and inhibitors, and the control data without inhibitors. The IC50 values of these hydrogelators were read from their activity curves (FIG. 18), which were measured with 5 different concentrations of these hydrogelators (dissolved in DMSO).

[2] = target: T2, COX-1 (ovine) enzyme (Ovis aries, UniProt P05979); assay: COX Fluorescent Inhibitor Screening Assay, COX-1; format: biochemical; conditions: read-out: IC50 for inhibiting COX-1 enzyme
T2 construct: purchased Cayman Chemical 700100
T2 sequence (P05979 25-600): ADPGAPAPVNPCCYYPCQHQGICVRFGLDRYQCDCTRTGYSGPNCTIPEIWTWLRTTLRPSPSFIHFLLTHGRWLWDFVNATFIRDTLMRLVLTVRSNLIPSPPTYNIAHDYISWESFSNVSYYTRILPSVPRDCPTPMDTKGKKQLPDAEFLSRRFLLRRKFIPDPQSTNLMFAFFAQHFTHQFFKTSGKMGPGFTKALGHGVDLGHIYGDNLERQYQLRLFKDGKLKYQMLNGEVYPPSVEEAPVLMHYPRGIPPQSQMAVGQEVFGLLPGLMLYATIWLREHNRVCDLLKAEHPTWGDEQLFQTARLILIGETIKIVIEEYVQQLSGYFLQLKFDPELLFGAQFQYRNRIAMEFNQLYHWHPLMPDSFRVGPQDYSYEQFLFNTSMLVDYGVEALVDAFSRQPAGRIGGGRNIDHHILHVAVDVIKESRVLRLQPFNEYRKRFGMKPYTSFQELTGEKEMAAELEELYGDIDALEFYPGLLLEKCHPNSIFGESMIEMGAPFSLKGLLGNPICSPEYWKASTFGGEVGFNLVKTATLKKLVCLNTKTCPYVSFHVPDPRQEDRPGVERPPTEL
Procedure: as §1

[3] = tested on: HeLa cells; assay: MTT cytotoxicity of Npx containing hydrogelators; format: cell-based
Procedure: The HeLa cells in good condition were seeded into 96-well plate (2×10^5 cells/well) in 100 μL of MEM medium with 10% FBS. With 12 hours of incubation at 37° C. and 5% CO2, the HeLa cells were attached to bottom of 96-well plate. Then the medium was replaced by another 100 μL of growth medium that contained serial diluents of our compounds and the cells were incubated at 37° C. and 5% CO2 for additional 72 hours. The compounds were stocked at 10 μM in DMSO, followed by further dilutions with MEM medium. All of these serial diluents were adjusted to contain 0.5% of DMSO.

[4] = rheological measurement of Npx containing hydrogels; format: physicochemical; conditions: hydrogel 0.8 wt %
Procedure: Rheological tests were conducted on TA ARES G2 rheometer with TA Orchestrator Software. 25 mm cone-plate was used during the experiment. 0.2 mL of hydrogel sample was placed on the cone-plate.
The measurement performs at the frequency of 6.28 rad/s (0.1 to 10% strain, frequency=10 rads^−1, 10 points per decade). Sweep mode is “log” and temperature was carried out at 25° C. The critical strain (γc) value was determined from the storage-strain profiles of the hydrogel sample. The strain applied to the hydrogel sample increased from 0.1 to 100% (10 rad/s and 25° C.). Over a certain strain, a drop in the elastic modulus was observed, and the strain amplitude at which storage moduli just begins to decrease by 5% from its maximum value was determined and taken as a measure of the critical strain of the hydrogels, which correspond to the breakdown of the cross-linked network in the hydrogel sample.
The frequency ranges from 200 rad/s to 0.1 rad/s, depending on the viscoelastic properties of each sample. A suitable strain was used to ensure the linearity of dynamic viscoelasticity.

[5] = in vitro release of hydrogelators from hydrogels; format: physicochemical; conditions: 0.8 wt % hydrogel, PBS pH 7.4, 37° C., after 24 hours
Procedure: After studying their drug efficacies, the sustained release of Npx-containing hydrogelators from 0.8 wt % of hydrogels was studied. We incubated 100 μL of hydrogels at 37° C. for 24 hours with 100 μL of PBS buffer solution (pH 7.4), which is refreshed and monitored at 1 h, 2 h, 4 h, 8 h, 12 h, and 24 h. […] After 24 hours, hydrogel 1 slowly and steadily released 6.5% of the hydrogelator. […] Hydrogels 5 and 6 release 35.8% and 31.7% of hydrogelators after 24 h.
To illustrate the in vitro release profile of hydrogelators, we prepared 100 μL of the hydrogels formed by 1 (0.8 wt %, pH 4.0), 2 (0.8 wt %, pH 7.6), 3 (0.8 wt %, pH 7.6), 4 (0.8 wt %, pH 7.6), 5 (0.8 wt %, pH 7.0), and 6 (0.8 wt %, pH 7.0). With the addition of PBS buffer (100 μL, pH 7.4) onto the surface of hydrogels, the gels were incubated at 37° C. for 24 hours. The release solutions (100 μL) were taken and refreshed at […], 2 h, 4 h, 8 h, 12 h, and 24 h, which were detected by analytical HPLC at 276 nm for the quantities of released Npx containing hydrogelators 1, 2, 3, 4, 5, and 6.

[6] = tested on: 4T1-luciferase cells; assay: in vivo evaluation of antitumor activity; set-up: species or system Balb/c mice; conditions: intravenous 4×10 mg/kg every other day from day 0
Procedure: After inoculating female Balb/c mice with 2×10^5 of 4T1-luciferase cells in the mammary fat pad, we allow tumors grow until their sizes reach about 500 mm^3, and randomly divide them into different treatment groups: (1) intravenous injections of PBS vehicle control; (2) intravenous injection of 4×10 mg/kg Taxol® every other day from day 0 for indicated times; (3) a single intratumoral injection of 10 mg/kg Taxol containing hydrogels in 40 μL volume. With the treatments of 16 (Taxol; paclitaxel), 20a, 20b, or PBS buffer (control) for 14 days, we monitor the relative tumor sizes (calculated by the formula: tumor volume=length×width×(Length+Width)/2) and relative weights of mice every two days. […] Therefore, we have to divide 40 mg/kg of 16 into four injections with each injection of 10 mg/kg. […] This promising result warrants further investigation of the D-peptidic hydrogels of Taxol on animal models.
Female Balb/c mice were incubated with 2×10^5 4 T1-luciferase cells in the mammary fat pad. Tumor growth was monitored every other day and the tumor volume was calculated by the formula: length×width×(Length+Width)/2. Once tumors size reached around 500 mm^3, we randomly divided mice into different treatment groups. […] Mice weight was monitored after receiving treatment and presented as relative weight (%).

[7] = toxicity and relative weight of treated mice; format: in vivo, Balb/c mice; conditions: single injection of 40 mg/kg, formulated with Cremophor EL, 40 mg/kg
[8] = tested on: HeLa cells; assay: cells; format: cell-based; conditions: Homo sapiens, HeLa; 72 hours at 37° C., MTT; read-out: IC50, HeLa cell viability
Procedure: We seeded […] (cells/well) of health HeLa cells into 96-well plate with 100 μL of MEM medium supplemented with 10% fetal bovine serum (FBS), 100 U/mL penicillin and 100 mg mL21 streptomycin. The incubation at 37° C. and 5% CO2 for 12 hours allowed HeLa cells to attach the bottom of 96-well plate. Then we replaced the medium by another 100 μL of growth medium that contained serial diluents of our compounds (0.5% DMSO) and then incubated the cells at 37° C. and 5% CO2 for additional 72 hours. During the measurement of proliferation for HeLa cells, which were assayed into three days, we added 10 μL of (3-(4,5-Dimethylthiazol-2-yl)-2,5-diphenyltetrazolium bromide (MTT, 0.5 mg/mL) into the assigned wells in their corresponding day every 24 hours, which was followed by adding 100 μL of 0.1% sodium dodecyl sulfate (SDS) 4 hours later. Then we collected the assay results after another 24 hours incubation. Since the mitochondrial reductase in living cells reduced MTT to purple fomazan, the absorbance at 595 nm of the whole solution was finally measured by DTX 880 Multimode Detector. With MEM medium as blank and untreated HeLa cells as control, we measure each concentration of these compounds in triplicate. The IC50 values of our hydrogelators were read from their activity curves (with the measurement of 8 different concentrations) in day 3.

[9] = target: COX-2 (Homo sapiens, UniProt P35354); conditions: read-out: reported IC50 of naproxen to COX-2; literature; cited from earlier work

Compound: COc1ccc2cc([C@H](C)C(=O)N[C@@H](Cc3ccccc3)C(=O)N[C@@H](Cc3ccccc3)C(=O)N[C@@H](CCCCN)C(=O)N[C@@H](Cc3ccc(O)cc3)C(=O)O)ccc2c1 [L-4, Naproxen-L-Phe-L-Phe-L-Lys-L-Tyr, reference compound] (Naproxen-FFKY-OH)
- selectivity S for COX-2 (IC50 of COX-1/IC50 of COX-2) [1]: about 3
- IC50 [2]: 115 µM

Compound: COc1ccc2cc([C@H](C)C(=O)N[C@H](Cc3ccccc3)C(=O)N[C@H](Cc3ccccc3)C(=O)N[C@H](Cc3ccc(O)cc3)C(=O)O)ccc2c1 [compound 2, Npx-ffy]
- cell proliferation based on the numbers of HeLa cells [3]: no promotion of the cell proliferation
- critical strain [4]: 1.6%
- storage modulus G′ ([4]; 6.28 rad/s): 6.2×10^2 Pa
- hydrogelator released from hydrogel [5]: 8.0%

Compound: CC(=O)O[C@H]1C(=O)[C@@]2(C)[C@H]([C@H](OC(=O)c3ccccc3)[C@]3(O)C[C@H](OC(=O)[C@H](O)[C@@H](NC(=O)c4ccccc4)c4ccccc4)C(C)=C1C3(C)C)[C@]1(OC(C)=O)CO[C@@H]1C[C@@H]2O [compound 16, paclitaxel]
- relative tumor size vs control [6]: smaller than those of the control group after day 8
- lethality ([7]; listed as Taxol): Mice died immediately
- lethality ([7]; listed as Taxol®): may cause the death of mouse immediately
- IC50 [8]: 0.0458 µM

Compound: COc1ccc2cc([C@H](C)C(=O)O)ccc2c1 [naproxen]
- IC50 [9]: 2 to 28.4 µM
